Test results taken from PubChem BioAssay (NCI).
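Compound exposure: 48 hours, 5 concentrations, 96-well plates. The concentration for 50% growth inhibition is given as GI50. The concentration for full growth arrest is given as TGI.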

What was measured:
Assay in all cases: inhibition of tumour cell growth, NCI panel, 48 h
[1] = test system: SNB-19 CNS
[2] = test system: NCI-H522 lung
[3] = test system: CAKI-1 renal
[4] = test system: SF-295 CNS
[5] = test system: T-47D breast
[6] = test system: HCC-2998 colon
[7] = test system: EKVX NSCLC
[8] = test system: SF-539 CNS
[9] = test system: SF-268 CNS
[10] = test system: RPMI-8226 leukemia

SMILES	GI50 [1] [µM]	TGI [1] [µM]	GI50 [2] [µM]	TGI [2] [µM]	GI50 [3] [µM]	TGI [3] [µM]	GI50 [4] [µM]	TGI [4] [µM]	GI50 [5] [µM]	TGI [5] [µM]	GI50 [6] [µM]	TGI [6] [µM]	GI50 [7] [µM]	TGI [7] [µM]	GI50 [8] [µM]	TGI [8] [µM]	GI50 [9] [µM]	TGI [9] [µM]	TGI [10] [µM]	GI50 [10] [µM]
CCCCC(CC)COC(=O)C[N+](C)(C)CCOC(c1ccccc1)c1ccccc1 (configuration not stated)	1.85	3.76	1.75	3.67	16.8	31.9	9.63	26.3	1.91	4.44	1.75	3.29	3.76	15.9	2.32	5.27	2.01	4.77	–	–
CC1=[N+]([O-])c2ccccc2C(=O)C1=O	–	> 100	–	71.4	–	> 100	–	> 100	–	–	–	> 100	–	> 100	–	> 100	–	> 100	> 100	–
COC(=O)C12CC3CC(CC(C(=O)O)(C3)C1)C2	–	> 100	–	> 100	–	> 100	–	> 100	–	–	–	> 100	–	> 100	–	> 100	–	> 100	> 100	–
Cc1ccc(N=C/C=C(\Nc2ccc(C)cc2)c2ccc(Cl)cc2)cc1	17.3	70.6	21.9	70	8.52	40.4	5.55	21.9	> 100	> 100	–	–	14	36.2	6.1	26.6	13.4	40.2	> 100	3.53
O=C(CCc1nc(=S)[nH][nH]1)Nc1ccccc1Cl	–	> 100	–	> 100	–	> 100	–	> 100	–	–	–	> 100	–	> 100	–	> 100	–	> 100	> 100	–
CNC(=S)/N=C(\N)N(C)C	–	> 100	–	> 100	–	> 100	–	> 100	–	–	–	> 100	–	> 100	–	> 100	–	> 100	> 100	–
COc1cc2c3c(n(CCCN)c(=O)c2cc1OC)-c1ccc(C#N)cc1C3=O	11.6	30.4	9.61	> 100	34.9	> 100	11.1	33.6	13.2	34.9	3.05	15	19	41.9	–	–	14.7	42.4	41.5	19.1
CN1CCc2nc(N)nc(-c3nc(N)nc4c3CN(C)CC4)c2C1	–	> 100	–	> 100	–	> 100	–	> 100	–	> 100	–	–	–	> 100	–	> 100	–	> 100	> 100	–
CCOC(=O)C1CCN(S(=O)(=O)/N=C2/NC(=O)NC2=C(Cl)Cl)CC1	1.84	5.11	2.22	4.28	–	–	3.56	14.1	4.41	32.9	2.05	3.67	1.99	4.79	0.525	4.44	1.93	7.43	10.1	0.327
